For the assay, the system named is mRNA coding for SMR1 in the SMG. Kind of assay: Regulation of the accumulation of mRNA coding for SMR1 in the SMG of the rat by androgens (RNA transfer and hybridization with SMR1 cDNA probe). Format: in vivo, Wistar rats. How it is done:
10 weeks old male and female Wistar rats were obtained from Iffa-Credo. The androgens were removed by castration and 10 days later 35 mg of testosterone (Sterandryl retard, Roussel) were injected by the intraperitoneal route in the cases indicated. In the cases indicated, the same dose of testosterone was administered to female rats. 8 weeks old DBA/2 and “Swiss” mice were obtained from the Pasteur Institute.
The RNA was prepared from rat and mouse tissues as described in the literature (Tronik D. et al. 1987, EMBO J. 6, 983-987). The in vitro translation of the RNAs was carried out by using the mRNA-dependent translation system as a lysate in the presence of mRNA-dependent reticulocytes (Pelham H. RB et al., 1976, Eur. J. Biochem. 67, 247-256). The products were analysed by electrophoresis on a denaturing polyacrylamide-NaDodSO4 gel. […]
Furthermore, various amounts (as indicated in the figure) of RNA from the SMG of male rats and female rats were subjected to electrophoresis on a 2% agarose-formaldehyde gel, they were transferred to filters and hybridized with the cDNA probe coding for SMR1. […] As is apparent in part B, the mRNA coding for SMR1 accumulates in very large quantities in the SMG of male Wistar rats, since an amount as low as 1.5 ng of total RNA was sufficient to give a hybridization signal. […]

As for `C[C@]12CC[C@H]3[C@@H](CCC4=CC(=O)CC[C@@]43C)[C@@H]1CC[C@@H]2O` [testosterone], under “adult female rats, same dose (35 mg) of testosterone”, the “accumulation of mRNA coding for SMR1 in the SMG” value is “caused the accumulation of mRNA coding for SMR1 in amounts similar to that observed in the males”. Also, for the setting “castrated male rats, 35 mg testosterone by the intraperitoneal route 10 days after castration”, the “amount of mRNA coding for SMR1 in the SMG” value was “restored the amount of mRNA coding for SMR1 to the same value as that observed in the non-castrated males”.

The values above are taken from patent US6916607B2, “PEPTIDES AND PO[…] FROM THE SU[…] OF THE RAT COR[…] […] COR[…] USES OF THESE PRODUCTS FOR DIAGNOSIS FOR DETECTION OR T[…]” (Institute Pasteur, priority 1988, dated 2005).
